Assays:
cytochrome bc1 = cytochrome bc1 (Mycobacterium tuberculosis, UniProt P9WP37); conditions: described in WO2017/049321 (HT-21) and WO2011/113606 (Q203); cited from earlier work
[1] = test system: Mycobacterium avium ATCC700898; experiment: Test1: mouse lung infection model, CFU in lungs after 2 weeks of treatment
Method: There were 9 study groups and 4 mice per group
All treatments were evaluated on Mycobacterium avium ATCC700898.
All formulations prepared in 20% Tween20, 80% aq. (20% HP-ß-CD and 0. 6% HPMC, pH3).
All formulations were solutions and prepared every day.
Time Schedule, after mice were infected.
The mice were infected with Mycobacterium avium strain.
When 0.07 mL of this dilution is injected, each mouse receives 10^6 bacteria.
36 female 8-weeks old BALB/c mice, Charles River, were inoculated intranasally with 0.07 mL of a bacterial suspension containing ±10^6 colony forming units (CFU). […]
The effectiveness of treatments was assessed by counting the numbers of colony-forming-units (CFU) in the lungs. • 1.8 mL Mueller Hinton Broth (MHB) was added to each homogenization tube containing lung. • Lungs were homogenized, and four 10-fold serial dilutions were made in MHB. • From each individual lung, 100 μL of the undiluted suspension and four serial 10-fold dilutions, were plated on 7H10 agar plates. • CFU's were counted after incubation at 35° C. for 2 weeks. • The bactericidal effect of the treatment was defined as a significant decrease of the mean number of CFU in the treated group compared to pre-treatment value.

[2] = test system: Mycobacterium avium ATCC700898; experiment: Test3: mouse lung infection model, CFU in lungs after 2 weeks of treatment; assay type: in vivo; conditions: day 15, AZM 10 mg/kg, RFP 10 mg/kg, ETB 100 mg/kg, CFZ 20 mg/kg, Q203 5 mg/kg
Excerpt: (§1) Almost protocol was the same as the protocol described in Test1 above.

[3] = test system: cytochrome P-450 (CYP) 3A; conditions: cited from earlier work
[4] = test system: Mycobacterium avium ATCC700898; experiment: Test2: mouse lung infection model, CFU in lungs after 2 weeks of treatment; assay type: in vivo; conditions: day 15, CAM 200 mg/kg
Excerpt: There were 6 study groups and 4 mice per group
as §1

MAC = conditions: pulmonary disease patients infected by MAC; relapse still occurred; cited from earlier work
M. avium = conditions: in vitro; cited from earlier work
M. intracellulare = conditions: in vitro, majority of M. intracellulare isolates; cited from earlier work
TB = conditions: in vitro and in vivo mouse model; cited from earlier work

Chain of cytochrome bc1 (P9WP37 whole entry, looked up): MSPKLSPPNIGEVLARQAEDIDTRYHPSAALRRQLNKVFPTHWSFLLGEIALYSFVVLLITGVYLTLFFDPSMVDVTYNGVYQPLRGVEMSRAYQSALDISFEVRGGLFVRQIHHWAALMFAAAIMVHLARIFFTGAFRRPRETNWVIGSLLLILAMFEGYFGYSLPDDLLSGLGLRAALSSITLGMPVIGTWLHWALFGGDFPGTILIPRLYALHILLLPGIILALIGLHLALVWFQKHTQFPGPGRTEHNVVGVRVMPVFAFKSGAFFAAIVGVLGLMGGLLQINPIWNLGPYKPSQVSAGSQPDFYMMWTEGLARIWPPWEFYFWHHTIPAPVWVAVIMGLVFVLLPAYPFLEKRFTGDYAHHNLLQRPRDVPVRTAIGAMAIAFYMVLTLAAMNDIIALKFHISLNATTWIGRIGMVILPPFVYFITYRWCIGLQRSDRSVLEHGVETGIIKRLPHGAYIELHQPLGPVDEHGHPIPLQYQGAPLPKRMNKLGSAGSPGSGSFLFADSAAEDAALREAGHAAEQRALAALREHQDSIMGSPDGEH

Cc1ccn2c(C(=O)NCc3ccc(N4CCCN(c5ccc(C(F)(F)F)cc5)CC4)c(F)c3)c(C)nc2c1 [HT-21]
cytochrome bc1 inhibitory activity (cytochrome bc1): excellent cytochrome bc1 inhibitory activity | efficacy (CFU in lungs), in words ([1]; HT-21 200 mg/kg added to clarithromycin+clofazimine, cut off 2.00): the effect reached plateau

CC[C@H]1OC(=O)[C@H](C)[C@@H](O[C@H]2C[C@@](C)(OC)[C@@H](O)[C@H](C)O2)[C@H](C)[C@@H](O[C@@H]2O[C@H](C)C[C@H](N(C)C)[C@H]2O)[C@](C)(O)C[C@@H](C)CN(C)[C@H](C)[C@@H](O)[C@]1(C)O [AZM, Azithromycin]
Mean Log10 (CFU in lungs) [2]: 6.19 | inhibition of CYP3A [3]: does not inhibit

CC[C@H]1OC(=O)[C@H](C)[C@@H](O[C@H]2C[C@@](C)(OC)[C@@H](O)[C@H](C)O2)[C@H](C)[C@@H](O[C@@H]2O[C@H](C)C[C@H](N(C)C)[C@H]2O)[C@](C)(OC)C[C@@H](C)C(=O)[C@H](C)[C@@H](O)[C@]1(C)O [CAM, Clarithromycin]
drop in mean log 10 CFU from Control 2 [4]: 1.0 | Mean Log10 (CFU in lungs) ([4]; CFZ 20 mg/kg, HT-21 5 mg/kg or Q203 5 mg/kg): 4.85 | Mean Log10 (CFU in lungs) ([1]; BALB/c mice, day 15, oral once daily, 10 doses, CAM 200 mg/kg, RFP 20 mg/kg, ETB 100 mg/kg, CFZ 20 mg/kg): 3.98 | inhibition of CYP3A [3]: inhibits

CC(C)/N=c1\cc2n(-c3ccc(Cl)cc3)c3ccccc3nc-2cc1Nc1ccc(Cl)cc1 [CFZ, Clofazimine]
proportion of patients converted to negative cultures (MAC): significantly greater proportion | MIC (M. avium): 1 to 4 µg/mL | MIC (M. intracellulare): < 1 µg/mL

CCc1nc2cc(C)ccn2c1C(=O)NCc1ccc(N2CCC(c3ccc(OC(F)(F)F)cc3)CC2)cc1 [Q203]
growth of TB (TB): inhibited the growth of TB | cytochrome bc1 inhibitory activity (cytochrome bc1): excellent cytochrome bc1 inhibitory activity

From patent publication US20220235047A1, “A MEDICAMENT FOR TREATING MYCOBACTERIAL INFECTION CHARACTERIZED BY COMBINING A CYTOCHROME bc1 INHIBITOR WITH CLARITHROMYCIN OR AZITHROMYCIN AND CLOFAZIMINE” (priority 2019, published 2022)
